Experimental data reported in ChEMBL document CHEMBL3885881, “DrugMatrix”.

Species on record: Rattus norvegicus
Assay: DrugMatrix - Regimen: Daily Repeat
Format: toxicity, organism-based, Sprague-Dawley
Design: regimen Daily Repeat, gender Male, age 6-8 weeks
Conditions: in vivo, po, 0 mg/kg, route oral GAVAGE, dose level Control, vehicle 100 % WATER; for ABSOLUTE BASOPHIL / ABSOLUTE EOSINOPHIL / ABSOLUTE LYMPHOCYTE / ABSOLUTE MONOCYTE / ABSOLUTE SEGMENTED NEUTROPHIL / BASOPHIL / EOSINOPHIL / ERYTHROCYTE COUNT / HEMATOCRIT / HEMOGLOBIN / LEUKOCYTE COUNT / LYMPHOCYTE / MEAN CORPUSCULAR HEMOGLOBIN / MEAN CORPUSCULAR HEMOGLOBIN CONCENTRATION / MEAN CORPUSCULAR VOLUME / MONOCYTE / NEUTROPHIL / NUCLEATED RED BLOOD CELLS / PLATELET COUNT: tissue Blood; for ALANINE AMINOTRANSFERASE / ALBUMIN / ALKALINE PHOSPHATASE / ASPARTATE AMINOTRANSFERASE / BLOOD UREA NITROGEN / CARBON DIOXIDE / CHLORIDE / CHOLESTEROL / CREATINE PHOSPHOKINASE / CREATININE / GLUCOSE / LACTATE DEHYDROGENASE / LIPASE / PHOSPHORUS / POTASSIUM / SODIUM / TOTAL BILIRUBIN / TOTAL PROTEIN / URIC ACID: tissue Plasma

SMILES: C[N+](C)(C)CCO.[Cl-] [CHOLINE CHLORIDE]
- ABSOLUTE BASOPHIL (72 h, time 3 day): 0 CELLS/uL
- ABSOLUTE EOSINOPHIL (72 h, time 3 day): 0 CELLS/uL
- ABSOLUTE LYMPHOCYTE (72 h, time 3 day): 10386.33 CELLS/uL
- ABSOLUTE MONOCYTE (72 h, time 3 day): 88.5 CELLS/uL
- ABSOLUTE SEGMENTED NEUTROPHIL (72 h, time 3 day): 1008.5 CELLS/uL
- BASOPHIL (72 h, time 3 day): 0%
- EOSINOPHIL (72 h, time 3 day): 0%
- ERYTHROCYTE COUNT (72 h, time 3 day): 5.16 x10E6/uL
- HEMATOCRIT (72 h, time 3 day): 32.43%
- HEMOGLOBIN (72 h, time 3 day): 12.98 G/DL
- LEUKOCYTE COUNT (72 h, time 3 day): 11.48 x10E3/uL
- LYMPHOCYTE (72 h, time 3 day): 92.33%
- MEAN CORPUSCULAR HEMOGLOBIN (72 h, time 3 day): 25.23 pg
- MEAN CORPUSCULAR HEMOGLOBIN CONCENTRATION (72 h, time 3 day): 40.08 G/DL
- MEAN CORPUSCULAR VOLUME (72 h, time 3 day): 62.95 fL
- MONOCYTE (72 h, time 3 day): 0.67%
- NEUTROPHIL (72 h, time 3 day): 7%
- NUCLEATED RED BLOOD CELLS (72 h, time 3 day): 0 /100WBC
- PLATELET COUNT (72 h, time 3 day): 1016.67 x10E3/uL
- ALANINE AMINOTRANSFERASE (72 h, time 3 day): 62.17 u/L
- ALBUMIN (72 h, time 3 day): 3.95 G/DL
- ALKALINE PHOSPHATASE (72 h, time 3 day): 363.5 u/L
- ASPARTATE AMINOTRANSFERASE (72 h, time 3 day): 118 u/L
- BLOOD UREA NITROGEN (72 h, time 3 day): 14.5 mg/dL
- CARBON DIOXIDE (72 h, time 3 day): 22.83 mmol/L
- CHLORIDE (72 h, time 3 day): 100.67 MEQ/L
- CHOLESTEROL (72 h, time 3 day): 66 mg/dL
- CREATINE PHOSPHOKINASE (72 h, time 3 day): 1308.83 u/L
- CREATININE (72 h, time 3 day): 0.22 mg/dL
- GLUCOSE (72 h, time 3 day): 187.5 mg/dL
- LACTATE DEHYDROGENASE (72 h, time 3 day): 380.17 u/L
- LIPASE (72 h, time 3 day): 16.17 u/L
- PHOSPHORUS (72 h, time 3 day): 14.27 mg/dL
- POTASSIUM (72 h, time 3 day): 6.8 MEQ/L
- SODIUM (72 h, time 3 day): 142.53 MEQ/L
- TOTAL BILIRUBIN (72 h, time 3 day): 0.2 mg/dL
- TOTAL PROTEIN (72 h, time 3 day): 5.68 G/DL
- URIC ACID (72 h, time 3 day): 2.87 mg/dL
- ABSOLUTE BASOPHIL (120 h, time 5 day): 0 CELLS/uL
- ABSOLUTE EOSINOPHIL (120 h, time 5 day): 80 CELLS/uL
- ABSOLUTE LYMPHOCYTE (120 h, time 5 day): 13301.33 CELLS/uL
- ABSOLUTE MONOCYTE (120 h, time 5 day): 180.83 CELLS/uL
- ABSOLUTE SEGMENTED NEUTROPHIL (120 h, time 5 day): 1187.83 CELLS/uL
- BASOPHIL (120 h, time 5 day): 0%
- EOSINOPHIL (120 h, time 5 day): 0.5%
- ERYTHROCYTE COUNT (120 h, time 5 day): 5.54 x10E6/uL
- HEMATOCRIT (120 h, time 5 day): 35.65%
- HEMOGLOBIN (120 h, time 5 day): 14.22 G/DL
- LEUKOCYTE COUNT (120 h, time 5 day): 14.75 x10E3/uL
- LYMPHOCYTE (120 h, time 5 day): 90.67%
- MEAN CORPUSCULAR HEMOGLOBIN (120 h, time 5 day): 25.65 pg
- MEAN CORPUSCULAR HEMOGLOBIN CONCENTRATION (120 h, time 5 day): 39.88 G/DL
- MEAN CORPUSCULAR VOLUME (120 h, time 5 day): 64.35 fL
- MONOCYTE (120 h, time 5 day): 1%
- NEUTROPHIL (120 h, time 5 day): 7.83%
- NUCLEATED RED BLOOD CELLS (120 h, time 5 day): 0.17 /100WBC
- PLATELET COUNT (120 h, time 5 day): 1285.33 x10E3/uL
- ALANINE AMINOTRANSFERASE (120 h, time 5 day): 51.67 u/L
- ALBUMIN (120 h, time 5 day): 4.08 G/DL
- ALKALINE PHOSPHATASE (120 h, time 5 day): 391.5 u/L
- ASPARTATE AMINOTRANSFERASE (120 h, time 5 day): 99.5 u/L
- BLOOD UREA NITROGEN (120 h, time 5 day): 15.5 mg/dL
- CARBON DIOXIDE (120 h, time 5 day): 28.33 mmol/L
- CHLORIDE (120 h, time 5 day): 101.83 MEQ/L
- CHOLESTEROL (120 h, time 5 day): 67.83 mg/dL
- CREATINE PHOSPHOKINASE (120 h, time 5 day): 771.33 u/L
- CREATININE (120 h, time 5 day): 0.23 mg/dL
- GLUCOSE (120 h, time 5 day): 156.5 mg/dL
- LACTATE DEHYDROGENASE (120 h, time 5 day): 544.33 u/L
- LIPASE (120 h, time 5 day): 10.17 u/L
- PHOSPHORUS (120 h, time 5 day): 12.03 mg/dL
- POTASSIUM (120 h, time 5 day): 6.81 MEQ/L
- SODIUM (120 h, time 5 day): 144.13 MEQ/L
- TOTAL BILIRUBIN (120 h, time 5 day): 0.22 mg/dL
- TOTAL PROTEIN (120 h, time 5 day): 6 G/DL
- URIC ACID (120 h, time 5 day): 2.18 mg/dL
